# Test results: patent publication US8663669B2, “Pesticide treatment of soils or substrates with sulphur compounds” (Arkema France, priority 2002, dated 2014)
# Columns and labels:
# [1] = test system: young cucumber plants (9 cm, 2 leaves, ARIS hybrid); experiment: Phytotoxicity on young cucumber plants; format: in vivo
# Description: (§1) For both types of crop, 4 treatments were performed on 20 plants: • untreated control • 360 kg/ha of DMDS • 540 kg/ha of DMDS • 720 kg/ha of DMDS
# (§2) Five days after the treatment, the young plants are transplanted into pots 20 cm in diameter and 35 cm in height.
# (§3) The observations relating to the number of leaves per plant and the visual state of the plants are carried out 15 and 41 days after the transplantation: […]
# [2] = test system: eggs of nematodes (Meloidogyne arenaria); experiment: Ovicidal activity on the eggs of nematodes (number of hatchings); format: in vivo
# Description: The breeding of the nematodes was carried out on tomato plants. The tests were carried out with, aqueous solutions of DMDS at 0.0001%, 0.1%, 1% and 5% by mass, of DPDS at 1%, 5% and 10% by mass, and of allicin at 0.0003%, 0.0015% and 0.003% by mass, compared with a control consisting of pure water, and repeated five times. The ovicidal activity was also evaluated according to the same modalities, by counting the number of hatchings after 5 to 20 days following exposure to the products.
# soil microorganisms = experiment: Effect on soil microorganisms (oxygen consumed); details: 150 kg/ha (formulation A)
# Description: The effect of DMDS, applied at 150 kg/ha in the form of formulation A, to soil microorganisms was evaluated according to the following standard methods: • “Recommended tests for assessing the side-effects of pesticides on the soil micro flora”, Technical Report Agricultural Research Council Weed Research Organization, 1980 (59). • “OECD Guideline for Testing of Chemicals—Soil Microorganisms: Carbon Mineralization Test”, Draft document, June 1996.
# The effect of DMDS on soil microorganisms is measured by the reduction in the oxygen consumed by these microorganisms, expressed in mg O2 per kg of dry soil per h, 14, 28, 42, 57 days after the treatment (Table 14).
# [3] = test system: young tomato plants (13 cm, 3 leaves, JUMBO hybrid); experiment: Phytotoxicity on young tomato plants; format: in vivo
# Description: as §1, §2, §3
# [4] = 360, 540, 720 kg/ha, 15 and 41 days after transplantation
# [5] = 360 kg/ha DMDS (formulation A), after 15 days
# [6] = 360 kg/ha DMDS (formulation A), after 41 days
# [7] = 540 kg/ha DMDS (formulation A), after 15 days
# [8] = 540 kg/ha DMDS (formulation A), after 41 days
# [9] = 720 kg/ha DMDS (formulation A), after 15 days
# [10] = 720 kg/ha DMDS (formulation A), after 41 days
# [11] = regardless of the concentration tested (360-720 kg/ha)
smiles,measurement,setting,value
"CSSC [DMDS, dimethyl disulphide]",Visual symptom of phytotoxicity,[1]; [4],no visual symptom of phytotoxicity
same,Average number of leaves per plant,[1]; [5],5.3
same,Average number of leaves per plant,[1]; [6],9.8
same,Average number of leaves per plant,[1]; [7],5.7
same,Average number of leaves per plant,[1]; [8],9.7
same,Average number of leaves per plant,[1]; [9],5.7
same,Average number of leaves per plant,[1]; [10],9.9
same,Difference in number of leaves between untreated control and treated plants,[1]; [11],no significant difference
same,Ovicidal activity,[2]; 1-10 % by mass,very high ovicidal activity
same,Number of hatchings (cumulative),"[2]; concentration by mass 1 %, D5, control 141",7
same,Number of hatchings (cumulative),"[2]; concentration by mass 1 %, D10, control 179",7
same,Number of hatchings (cumulative),"[2]; concentration by mass 1 %, D13, control 184",7
same,Number of hatchings (cumulative),"[2]; concentration by mass 1 %, D17, control 184",7
same,Number of hatchings (cumulative),"[2]; concentration by mass 5 %, D5, control 141",2
same,Number of hatchings (cumulative),"[2]; concentration by mass 5 %, D10, control 179",2
same,Number of hatchings (cumulative),"[2]; concentration by mass 5 %, D13, control 184",5
same,Number of hatchings (cumulative),"[2]; concentration by mass 5 %, D17, control 184",5
same,Number of hatchings (cumulative),"[2]; concentration by mass 10 %, D5, control 141",0
same,Number of hatchings (cumulative),"[2]; concentration by mass 10 %, D10, control 179",2
same,Number of hatchings (cumulative),"[2]; concentration by mass 10 %, D13, control 184",5
same,Number of hatchings (cumulative),"[2]; concentration by mass 10 %, D17, control 184",5
same,Reduction in the number of hatchings,[2]; on the last day of observation,approximately 97%
same,Oxygen consumed by soil microorganisms,"soil microorganisms; Day 0, untreated control 11.23",9.70 mg O2 per kg of dry soil per h
same,Oxygen consumed by soil microorganisms,"soil microorganisms; Day 14, untreated control 10.18",8.74 mg O2 per kg of dry soil per h
same,Oxygen consumed by soil microorganisms,"soil microorganisms; Day 28, untreated control 7.87",6.62 mg O2 per kg of dry soil per h
same,Oxygen consumed by soil microorganisms,"soil microorganisms; Day 42, untreated control 9.12",8.93 mg O2 per kg of dry soil per h
same,Oxygen consumed by soil microorganisms,"soil microorganisms; Day 57, untreated control 7.30",4.90 mg O2 per kg of dry soil per h
same,Visual symptom of phytotoxicity,[3]; [4],no visual symptom of phytotoxicity
same,Average number of leaves per plant,[3]; [5],5.3
same,Average number of leaves per plant,[3]; [6],9.6
same,Average number of leaves per plant,[3]; [7],5.3
same,Average number of leaves per plant,[3]; [8],9.4
same,Average number of leaves per plant,[3]; [9],5.7
same,Average number of leaves per plant,[3]; [10],9.8
same,Difference in number of leaves between untreated control and treated plants,[3]; [11],no significant difference
